Data: patent US6130228A, “Polycyclic compounds” (priority 1995, dated 2000)
Read-outs that look alike come from different tables or passages of the source.

Experiments:
[1] = system: noradrenaline (NA) uptake; experiment: Monoamine Uptake Inhibition Assay, noradrenaline (synaptosomal preparation); type: biochemical, rat (Sprague Dawley); conditions: Table 1; form SALT; n = 5; read-out: IC50 NA UPTAKE
Method: (§1) One male rat (Sprague Dawley) weighing approx. 200-250 g was sacrificed by cervical dislocation. The brain was dissected out and the cerebellum discarded. The brain was then weighed and 10 ml ice cold sucrose (0.32M) added per gram tissue. […] The pellet was discarded and the supernatant retained (crude synaptosomal preparation).
(§2) All tubes were set up in triplicate. […] 100 μl of the prepared synaptosomal preparation was added to each tube and incubated for 5 minutes in a shaking water bath at 37° C. Any reaction was stopped by plunging the tubes into an ice water bath. ^3 H NA (10^-7 M) or ^3 H 5-HT ([…]) was added to each tube and incubated for 5 minutes in a shaking water bath at 37° C. Any reaction was stopped by plunging the tubes into an ice-water bath. Accumulated monoamines were collected using a Brandell Cell Harvester under mild vacuum. Filters were rinsed (2×) using 4 ml of ice-cold 0.9% saline. Scintillation fluid was added (4 ml/tube). Radioactivity was measured on a scintillation counter.
(§3) Non-specific values were subtracted from total values. The control was taken as 100%. Drug effects were calculated as a percentage of control inhibitor value. A graph of log of drug concentration versus % control was plotted and IC50 values were calculated by interpolation.

5-HT (serotonin) uptake = type: biochemical, rat (Sprague Dawley)
Method: as §1, §2, §3

[2] = biological target: T1, Acetylcholinesterase (AChE) (Rattus norvegicus, UniProt P37136); experiment: biochemical; type: biochemical, Male Rats (Sprague Dawley), brain
T1 construct: The brain was removed and homogenised; from tissue; host or cells: rat brain (male Sprague Dawley), Triton X100 detergent supernatant of the EDTA-buffer pellet
T1 sequence (P37136 32-614): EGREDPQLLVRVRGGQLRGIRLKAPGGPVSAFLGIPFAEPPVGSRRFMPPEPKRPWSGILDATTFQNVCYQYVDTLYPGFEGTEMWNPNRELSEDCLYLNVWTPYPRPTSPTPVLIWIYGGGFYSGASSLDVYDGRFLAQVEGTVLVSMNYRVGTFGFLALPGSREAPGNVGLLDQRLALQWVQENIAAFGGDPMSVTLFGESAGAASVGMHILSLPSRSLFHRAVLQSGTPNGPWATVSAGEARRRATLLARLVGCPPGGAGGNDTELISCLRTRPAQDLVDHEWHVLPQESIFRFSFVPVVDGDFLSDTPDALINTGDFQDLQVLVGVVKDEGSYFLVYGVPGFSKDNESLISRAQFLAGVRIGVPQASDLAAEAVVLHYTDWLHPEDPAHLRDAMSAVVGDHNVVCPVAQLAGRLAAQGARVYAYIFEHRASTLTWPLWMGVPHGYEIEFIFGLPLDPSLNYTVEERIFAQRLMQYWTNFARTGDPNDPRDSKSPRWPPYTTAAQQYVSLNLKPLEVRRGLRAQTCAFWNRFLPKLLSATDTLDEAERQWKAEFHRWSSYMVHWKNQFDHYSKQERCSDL
Method: (i) Enzyme Source for AChE
5 Male Rats (Sprague Dawley) weighing approx 250 g were killed by CO2 overdose and cervical dislocation.
The brain was removed and homogenised (9 strokes at 840 rpm with 4 volumes of phosphate buffer pH 7.4+10 mM (EDTA) and centrifuged at 27,000 g for 30 minutes.
The supernatant was discarded and the pellet resuspended in phosphate buffer with 10 mM EDTA+1- Triton X100 (2 ml/g wet weight). The crude homogenate was centrifuged at 27,000 g for 30-40 minutes.
The pellet was discarded and the supernatant was dispensed into 0.5 ml aliquots and stored at -20° C. until required.
Phosphate Buffer (0.1M. pH 7.4)
Made up to 500 ml with distilled H2 O, pH 7.4.
0.5 ml aliquots of brain (enzyme solution) as prepared above were thawed out. 2 ml of phosphate buffer was added to each aliquot. 2 ml of the enzyme solution was incubated with 2 ml PDS for 60 minutes at 0° C. The composition of blank, control and test solutions are given below:
0.9 ml phosphate buffer (0.1 M, pH 7.4)
0.85 ml phosphate buffer (0.1M, pH 7.4)
0.05 ml acetylthiocholine (5.2 mM)
(§4) 0.8 ml phosphate buffer (0.1M, pH 7.4)
0.05 ml Acetylthiocholine 5.2 mM
Change in absorbance was measured at 30 second intervals for 3 minutes at […]. The control was taken as 100%. Inhibitor was calculated as a percentage of the control. A graph of Log of inhibitor conc. versus % control was plotted and IC5. values calculated by interpolation.

[3] = biological target: T2, Butyrylcholinesterase (BChE) (Equus caballus, UniProt P81908); experiment: biochemical; conditions: for IC50: Table 2
T2 construct: purchased Sigma c-7512
T2 sequence (P81908 whole entry): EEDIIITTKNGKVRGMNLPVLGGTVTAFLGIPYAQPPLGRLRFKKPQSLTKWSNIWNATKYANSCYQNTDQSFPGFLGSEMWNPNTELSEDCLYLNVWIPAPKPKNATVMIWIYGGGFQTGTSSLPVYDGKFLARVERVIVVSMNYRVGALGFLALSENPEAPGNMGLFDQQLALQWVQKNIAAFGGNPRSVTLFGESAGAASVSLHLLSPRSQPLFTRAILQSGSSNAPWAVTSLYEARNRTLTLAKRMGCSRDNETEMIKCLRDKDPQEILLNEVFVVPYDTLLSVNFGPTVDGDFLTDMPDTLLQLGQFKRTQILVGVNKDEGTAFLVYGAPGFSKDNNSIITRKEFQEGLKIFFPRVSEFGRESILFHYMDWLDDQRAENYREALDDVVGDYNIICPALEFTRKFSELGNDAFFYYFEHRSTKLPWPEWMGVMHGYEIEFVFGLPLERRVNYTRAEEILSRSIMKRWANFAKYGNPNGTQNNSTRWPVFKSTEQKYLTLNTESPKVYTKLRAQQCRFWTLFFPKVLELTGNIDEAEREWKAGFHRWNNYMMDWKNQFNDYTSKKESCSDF
Method: The following components were utilised:
Phosphate Buffer (0.1M, pH 7.4)
Made up to 500 ml with distilled H2 O, pH 7.4
1 ml of enzyme solution (i), was incubated with 2 ml PDS for 60 minutes at 0° C.
Components of the assay blank, controls and test solutions are provided below:
0.9 ml phosphate buffer (0.1M, pH 7.4)
0.85 ml phosphate buffer (0.1 M, pH 7.4)
0.05 ml Acetylthiocholine (5.2 mM)
as §4
Control was taken as 100%. Inhibitor was calculated as a percentage of control. A graph of Log of inhibitor conc. versus % control was plotted and IC50 values calculated by interpolation.

[4] = Table 3, read-out: 5-HT UPTAKE INHIBITION

Compound | IC50 [1] [µM] | IC50 (5-HT (serotonin) uptake; Table 1, form SALT, n = 5, read-out: IC50 5HT UPTAKE) [µM] | IC50 ([2]; Table 1, form SALT, ±SEM, n = 5, read-out: IC50 AChE) [µM] | IC50 (5-HT (serotonin) uptake; Table 1, form BASE, n = 5, read-out: IC50 5HT UPTAKE) [µM] | IC50 ([2]; Table 1, form BASE, ±SEM, n = 5, read-out: IC50 AChE) [µM] | 5-HT UPTAKE INHIBITION TACRINE RATIO (5-HT (serotonin) uptake) | IC50 (5-HT (serotonin) uptake; [4]) [µM] | AChE TACRINE RATIO [2] | IC50 ([2]; Table 2, read-out: AChE IC50) [µM] | BChE TACRINE RATIO [3] | IC50 ([3]; read-out: BChE IC50) [µM] | IC50 ([3]; NB = No Block at 100 μM, read-out: BChE IC50 (no block)) [µM] | IC50 [2] [µM] | AChE TACRINE RATIO ([2]; Table 2, relative to tacrine = 1.000)
Nc1c2c(nc3ccccc13)-c1ccccc1C2 [Compound 2, 6-Amino-4,5-benzo-[5H]-cyclopenta-[1,2-b]-quinoline] | 2.3 | 2.2 | 0.35 |  |  |  |  |  |  |  |  |  |  | 
Nc1c2c(nc3ccccc13)CCCc1ccccc1-2 [Compound 7, 13-Amino 6.7 dihydro[1H] benz [7] annuleno [4,5-b]quinoline] |  |  |  | 0.02 | 38.2 |  |  |  |  |  |  |  |  | 
Nc1c2c(nc3cc(F)c(F)cc13)CCC2 [Compound 8, 9-amino-6,7-difluoro-2,3-dihydro-1H -cyclopenta [1,2-b] quinoline] |  |  |  |  |  | 3.800 | 2 | 2.229 | 0.035 | 0.003 | 10 |  |  | 
Nc1c2c(nc3cc(F)cc(F)c13)CCC2 [Compound 9, 9-Amino-6,8-difluoro-2.3-dihydro-1H -cyclopenta[1,2-b] quinoline] |  |  |  |  |  | 0.146 | 52 | 0.650 | 0.12 | 0.018 | 1.4 |  |  | 
Nc1c2c(nc3ccc(F)c(F)c13)CCC2 [Compound 10, 9-Amino-7,8-difluoro-2,3-dihydro-1-H-cyclopenta-[1,2-b] quinoline] |  |  |  |  |  | 0.029 | 260 | 0.190 | 0.41 | 0.002 | 15 |  |  | 
Nc1c2c(nc3cc(Cl)ccc13)CCC2 [Compound 17, 9-amino-6-chloro-2,3-dihydro-1H-cyclopenta[b] quinoline] |  |  |  |  |  | 5.067 | 1.5 | 8.041 | 0.01 | 0.19 | 0.13 |  |  | 
Nc1c2c(nc3ccc(F)cc13)CCCC2 [Compound 18, 9-Amino-7-fluoro-1,2,3,4-tetrahydro-acridine] |  |  |  |  |  | 3.304 | 2.3 | 0.390 | 0.2 | 0.061 | 0.41 |  |  | 
Cc1ccc(C)c2c(N)c3c(nc12)CCC3 [Compound 20, 9-Amino-5,8-dimethyl-2,3-dihydro-1H -cyclopenta [1,2-b] quinoline] |  |  |  |  |  | 1.949 | 3.9 | 0.041 | 1.9 | 0.018 | 1.4 |  |  | 
Cc1cccc2c(N)c3c(nc12)CCC3 [Compound 21, 9-Amino-5-methyl-2.3-dihydro-1H -cyclopenta[1,2-b] quinoline] |  |  |  |  |  | 0.633 | 12 | 0.024 | 3.3 | 0.002 | 13.8 |  |  | 
Cc1cc(C)c2nc3c(c(N)c2c1)CCC3 [Compound 23, 9-Amino-5-7-Dimethyl-2,3-dihydro-1H-cyclopenta [1,2-b] quinoline] |  |  |  |  |  | 0.962 | 7.9 | 0.004 | 19 |  | 52 |  |  | 
Cc1ccc2nc3c(c(N)c2c1)CCC3 [Compound 24, 9-Amino-7-methyl-2,3-dihydro-1H-cyclopenta [1,2-b] quinoline] |  |  |  |  |  | 0.447 | 17 | 0.012 | 6.7 | 0.023 | 1.1 |  |  | 
Nc1c2c(nc3ccc(Br)cc13)CCC2 [Compound 25, 9-Amino-7-bromo-2,3-dihydro-1H-cyclopenta-[1,2-b] quinoline] |  |  |  |  |  | 1.434 | 5.3 | 0.008 | 10 | 0.013 | 1.9 |  |  | 
Cc1ccc2c(N)c3c(nc2c1C)CCC3 [Compound 26, 9-Amino-5,6-dimethyl-2,3-dihydro-1H-cyclopenta [1,2-b] quinoline] |  |  |  |  |  | 1.727 | 4.4 | 0.007 | 11.6 | 0.003 | 9.2 |  |  | 
Nc1c2c(nc3ccc(F)cc13)-c1ccccc1CC2 [Compound 27, 7-Amino-9-fluoro-5,6-dihydrobenz[c] acridine] |  |  |  |  |  | 2.171 | 3.5 | 0.004 | 18 |  |  | > 100 |  | 
c1ccc(CNc2c3c(nc4ccccc24)CCC3)cc1 [Compound 28, N-(Phenylmethyl)-9-amino-2,3-dihydro-1H-cyclopenta[1,2-b] quinoline] |  |  |  |  |  | 1.310 | 5.8 |  |  | 0.002 | 13.8 |  | 39.6 | 0.002
Cc1cc(C)c2c(N)c3c(nc2c1)CCC3 [Compound 30, 9-Amino-6,8-dimethyl-2,3-Dihydro-1H -cyclopenta [1,2-b] quinoline] |  |  |  |  |  | 0.938 | 8.1 | 0.600 | 0.13 | 0.035 | 0.71 |  |  | 
Nc1c2c(nc3c(F)ccc(F)c13)CCC2 [Compound 31, 9-Amino-5,8-difluoro-2,3-dihydro-1H-cyclopenta[1.2b] quinoline] |  |  |  |  |  |  |  | 0.166 | 0.47 | 0.005 | 4.8 |  |  | 
Nc1c2c(nc3c(F)cc(F)cc13)CCC2 [Compound 32, 9-Amino-5,7-difluoro-2.3dihydro-1H-cyclopenta[1,2b]quinoline] |  |  |  |  |  |  |  | 0.144 | 0.54 | 0.003 | 8.8 |  |  | 
Nc1c2c(nc3ccccc13)Cc1ccccc1CC2 [Compound 33, 13-amino 1,2-dihydro [1H] benz [7] annuleno [2,3-b] quinoline] |  |  |  |  |  | 0.400 | 18 | 0.002 | 36 |  |  |  |  | 
Nc1c2c(nc3ccc(F)cc13)-c1ccccc1C2 [Compound 34, 6-Amino-8-Fluoro-4,5-benzo-[5H]-cyclopenta-[1,2-b]-quinoline] |  |  |  |  |  | 0.400 | 18 | 0.030 | 2.9 |  |  |  |  | 
Nc1c2c(nc3ccc(Cl)cc13)-c1ccccc1C2 [Compound 35, 6-Amino-8-chloro-4,5-benzo-[5H]-cyclopenta-[1,2-b]-quinoline] |  |  |  |  |  | 0.070 | 114 |  | > 100 |  |  |  |  | 
COc1ccc2nc3c(c(N)c2c1)Cc1ccccc1-3 [Compound 36, 6-Amino-8-methoxy-4,5-benzo-[5H]-cyclopenta-[1,2-b]-quinoline] |  |  |  |  |  | 0.300 | 29 | 0.002 | 47 |  |  |  |  | 
